Reference: patent US20170107229A1, “SUBSTITUTED TETRAHYDROPYRIDOTHIENOPYRIMIDINES” (BAYER PHARMA AKTIENGESELLSCHAFT, priority 2014, published 2017)
pIC50: −log10 of the molar value.

Target: T1, human full-length MKNK1 (Homo sapiens, UniProt Q9BUB5, T385D)
T1 construct: GST (N); purchased Carna Biosciences 02-145; host or cells: insect cells (baculovirus expression system)
Experiment: MKNK1 kinase high ATP assay (TR-FRET)
Assay type: biochemical
Details: high ATP (2 mM final), 15 min preincubation with enzyme, GST-MKNK1 (T344D)
Protocol: MKNK1-inhibitory activity at high ATP of compounds of the present invention after their preincubation with MKNK1 was quantified employing the TR-FRET-based MKNK1 high ATP assay as described in the following paragraphs.
A recombinant fusion protein of Glutathione-S-Transferase (GST, N-terminally) and human full-length MKNK1 (amino acids 1-424 and T344D of accession number BAA 19885.1), expressed in insect cells using baculovirus expression system and purified via glutathione sepharose affinity chromatography, was purchased from Carna Biosciences (product no 02-145) and used as enzyme. As substrate for the kinase reaction the biotinylated peptide biotin-Ahx-IKKRKLTRRKSLKG (C-terminus in amide form) was used, which can be purchased e.g. from the company Biosyntan (Berlin-Buch, Germany).
For the assay 50 nL of a 100fold concentrated solution of the test compound in DMSO was pipetted into a black low volume 384well microtiter plate (Greiner Bio-One, Frickenhausen, Germany), 2 μL of a solution of MKNK1 in aqueous assay buffer [50 mM HEPES pH 7.5, 5 mM MgCl2, 1.0 mM dithiothreitol, 0.005% (v/v) Nonidet-P40 (Sigma)] was added and the mixture was incubated for 15 min at 22° C. to allow pre-binding of the test compounds to the enzyme before the start of the kinase reaction. Then the kinase reaction was started by the addition of 3 μL of a solution of adenosine-tri-phosphate (ATP, 3.3 mM=>final conc. in the 5 μL assay volume is 2 mM) and substrate (0.1 μM=>final conc. in the 5 μL assay volume is 0.06 μM) in assay buffer and the resulting mixture was incubated for a reaction time of 30 min at 22° C. The concentration of MKNK1 was adjusted depending of the activity of the enzyme lot and was chosen appropriate to have the assay in the linear range, typical concentrations were in the range of 0.003 μg/mL. The reaction was stopped by the addition of 5 μL of a solution of TR-FRET detection reagents (5 nM streptavidine-XL665 [Cisbio Bioassays, Codolet, France] and 1 nM anti-ribosomal protein S6 (pSer236)-antibody from Invitrogen [#44921G] and 1 nM LANCE EU-W1024 labeled ProteinG [Perkin-Elmer, product no. AD0071]) in an aqueous EDTA-solution (100 mM EDTA, 0.1% (w/v) bovine serum albumin in 50 mM HEPES pH 7.5).
The resulting mixture was incubated for 1 h at 22° C. to allow the formation of complex between the phosphorylated biotinylated peptide and the detection reagents. Subsequently the amount of phosphorylated substrate was evaluated by measurement of the resonance energy transfer from the Eu-chelate to the streptavidine-XL. Therefore, the fluorescence emissions at 620 nm and 665 nm after excitation at 350 nm were measured in a TR-FRET reader, e.g. a Rubystar (BMG Labtechnologies, Offenburg, Germany) or a Viewlux (Perkin-Elmer). The ratio of the emissions at 665 nm and at […] was taken as the measure for the amount of phosphorylated substrate. The data were normalised (enzyme reaction without inhibitor=0% inhibition, all other assay components but no enzyme=100% inhibition).

T1 sequence (Q9BUB5 1-424 isoform Q9BUB5-2 T344D): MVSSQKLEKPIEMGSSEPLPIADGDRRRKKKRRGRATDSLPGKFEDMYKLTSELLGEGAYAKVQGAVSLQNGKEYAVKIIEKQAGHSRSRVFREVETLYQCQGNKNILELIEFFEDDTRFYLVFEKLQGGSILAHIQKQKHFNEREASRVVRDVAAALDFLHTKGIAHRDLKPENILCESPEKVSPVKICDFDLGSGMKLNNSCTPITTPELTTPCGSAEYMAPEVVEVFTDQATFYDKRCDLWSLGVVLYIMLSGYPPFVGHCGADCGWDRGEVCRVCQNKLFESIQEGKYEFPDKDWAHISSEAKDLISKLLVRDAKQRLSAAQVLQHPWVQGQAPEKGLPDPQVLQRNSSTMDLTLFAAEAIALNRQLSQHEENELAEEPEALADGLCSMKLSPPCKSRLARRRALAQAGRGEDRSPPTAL

Row | pIC50 | SMILES
1 | 7.89 | COc1nc2[nH]ncc2cc1Nc1ncnc2sc3c(c12)CCN(C(=O)N1CCOCC1)C3 [Example 52, {4-[(6-Methoxy-1H-pyrazolo[3,4-b]pyridin-5-yl)amino]-5,8-dihydropyrido[4′,3′:4,5]thieno[2,3-d]pyrimidin-7(6H)-yl}(morpholin-4-yl)methanone]
2 | 8.05 | COc1cc2[nH]ncc2cc1Nc1ncnc2sc3c(c12)CCN(CCN1CCOCC1)C3 [Example 62, N-(6-Methoxy-1H-indazol-5-yl)-7-[2-(morpholin-4-yl)ethyl]-5,6,7,8-tetrahydropyrido[4′,3′:4,5]thieno[2,3-d]pyrimidin-4-amine]
3 | 7.55 | CC(C)C(=O)N1CCc2c(sc3ncnc(Nc4cc5cn[nH]c5cn4)c23)C1 [Example 20, 2-Methyl-1-[4-(1H-pyrazolo[3,4-c]pyridin-5-ylamino)-5,8-dihydropyrido[4′,3′:4,5]thieno[2,3-d]pyrimidin-7(6H)-yl]propan-1-one]
4 | 7.21 | CSc1cc2[nH]ncc2cc1Nc1ncnc2sc3c(c12)CCN(C(=O)N1CCOCC1)C3 [Example 47, [4-{[6-(Methylsulfanyl)-1H-indazol-5-yl]amino}-5,8-dihydropyrido[4′,3′:4,5]thieno[2,3-d]pyrimidin-7(6H)-yl](morpholin-4-yl)methanone]
5 | 8.00 | COc1cc2[nH]ncc2cc1Nc1ncnc2sc3c(c12)CCN(C(=O)N1CCCC1)C3 [Example 72, {4-[(6-Methoxy-1H-indazol-5-yl)amino]-5,8-dihydropyrido[4′,3′:4,5]thieno[2,3-d]pyrimidin-7(6H)-yl}(pyrrolidin-1-yl)methanone]
6 | 7.40 | CC(C)C(=O)N1CCc2c(sc3ncnc(Nc4cnc5[nH]ncc5c4)c23)C1 [Example 21, 2-Methyl-1-[4-(1H-pyrazolo[3,4-b]pyridin-5-ylamino)-5,8-dihydropyrido[4′,3′:4,5]thieno[2,3-d]pyrimidin-7(6H)-yl]propan-1-one]
7 | 6.93 | O=C(N1CCOCC1)N1CCc2c(sc3ncnc(Nc4cnc5[nH]ncc5c4)c23)C1 [Example 44, Morpholin-4-yl[4-(1H-pyrazolo[3,4-b]pyridin-5-ylamino)-5,8-dihydropyrido[4′,3′:4,5]thieno[2,3-d]pyrimidin-7(6H)-yl]methanone]
8 | 8.70 | COc1cc2[nH]ncc2cc1Nc1ncnc2sc3c(c12)CCN(C(=O)CCCS(C)(=O)=O)C3 [Example 9, 1-{4-[(6-Methoxy-1H-indazol-5-yl)amino]-5,8-dihydropyrido[4′,3′:4,5]thieno[2,3-d]pyrimidin-7(6H)-yl}-4-(methylsulfonyl)butan-1-one]
9 | 8.52 | COc1cc2[nH]ncc2cc1Nc1ncnc2sc3c(c12)CCN(C(=O)C1CCCCC1)C3 [Example 92, Cyclohexyl{4-[(6-methoxy-1H-indazol-5-yl)amino]-5,8-dihydropyrido[4′,3′:4,5]thieno[2,3-d]pyrimidin-7(6H)-yl}methanone]
10 | 7.60 | c1nc(Nc2ccc3[nH]ncc3c2)c2c3c(sc2n1)CN(CCN1CCOCC1)CC3 [Example 61, N-(1H-Indazol-5-yl)-7-[2-(morpholin-4-yl)ethyl]-5,6,7,8-tetrahydropyrido[4′,3′:4,5]thieno[2,3-d]pyrimidin-4-amine]
11 | 6.95 | CC(C)C(=O)N1CCc2c(sc3ncnc(Nc4ccc5[nH]c(=O)sc5c4)c23)C1 [Example 18, 6-[(7-Isobutyryl-5,6,7,8-tetrahydropyrido[4′,3′:4,5]thieno[2,3-d]pyrimidin-4-yl)amino]-1,3-benzothiazol-2(3H)-one]
12 | 6.32 | CN(C)C(=O)N1CCc2c(sc3ncnc(Nc4ccn5nccc5c4)c23)C1 [Example 30, N,N-Dimethyl-4-(pyrazolo[1,5-a]pyridin-5-ylamino)-5,8-dihydropyrido[4′,3′:4,5]thieno[2,3-d]pyrimidine-7(6H)-carboxamide]
13 | 7.74 | CC(C)(C)OC(=O)N1CCc2c(sc3ncnc(Nc4ccc5[nH]ncc5c4)c23)C1 [Example 5, tert-Butyl 4-(1H-indazol-5-ylamino)-5,8-dihydropyrido[4′,3′:4,5]thieno[2,3-d]pyrimidine-7(6H)-carboxylate]
14 | 7.21 | C[C@@H]1CN(C(=O)N2CCc3c(sc4ncnc(Nc5ccn6nccc6c5)c34)C2)C[C@H](C)O1 [Example 58, [(2R,6S)-2,6-Dimethylmorpholin-4-yl][4-(pyrazolo[1,5-a]pyridin-5-ylamino)-5,8-dihydropyrido[4′,3′:4,5]thieno[2,3-d]pyrimidin-7(6H)-yl]methanone]
15 | 6.67 | O=C(N1CCOCC1)N1CCc2c(sc3ncnc(Nc4ccc5[nH]c(=O)sc5c4)c23)C1 [Example 41, 6-{[7-(Morpholin-4-ylcarbonyl)-5,6,7,8-tetrahydropyrido[4′,3′:4,5]thieno[2,3-d]pyrimidin-4-yl]amino}-1,3-benzothiazol-2(3H)-one]
16 | 7.06 | CSc1cc2[nH]ncc2cc1Nc1ncnc2sc3c(c12)CCN(C(=O)N(C)C)C3 [Example 46, N,N-Dimethyl-4-{[6-(methylsulfanyl)-1H-indazol-5-yl]amino}-5,8-dihydropyrido[4′,3′:4,5]thieno[2,3-d]pyrimidine-7(6H)-carboxamide]
17 | 8.30 | COc1nc2[nH]ncc2cc1Nc1ncnc2sc3c(c12)CCN(C(=O)OC(C)(C)C)C3 [Example 59, tert-Butyl 4-[(6-methoxy-1H-pyrazolo[3,4-b]pyridin-5-yl)amino]-5,8-dihydropyrido[4′,3′:4,5]thieno[2,3-d]pyrimidine-7(6H)-carboxylate]
18 | 7.10 | FC(F)(F)CN1CCc2c(sc3ncnc(Nc4cnc5[nH]ncc5c4)c23)C1 [Example 10, N-(1H-Pyrazolo[3,4-b]pyridin-5-yl)-7-(2,2,2-trifluoroethyl)-5,6,7,8-tetrahydropyrido[4′,3′:4,5]thieno[2,3-d]pyrimidin-4-amine]
19 | 6.50 | CS(=O)(=O)N1CCc2c(sc3ncnc(Nc4ccc5[nH]c(=O)sc5c4)c23)C1 [Example 39, 6-{[7-(Methylsulfonyl)-5,6,7,8-tetrahydropyrido[4′,3′:4,5]thieno[2,3-d]pyrimidin-4-yl]amino}-1,3-benzothiazol-2(3H)-one]
20 | 7.28 | CN1CCC(C(=O)N2CCc3c(sc4ncnc(Nc5cnc6[nH]ncc6c5)c34)C2)CC1 [Example 67, (1-Methylpiperidin-4-yl)[4-(1H-pyrazolo[3,4-b]pyridin-5-ylamino)-5,8-dihydropyrido[4′,3′:4,5]thieno[2,3-d]pyrimidin-7(6H)-yl]methanone]
21 | 8.52 | COc1cc2[nH]ncc2cc1Nc1ncnc2sc3c(c12)CCN(C(=O)N1CCOC[C@@H]1C)C3 [Example 97, {4-[(6-Methoxy-1H-indazol-5-yl)amino]-5,8-dihydropyrido[4′,3′:4,5]thieno[2,3-d]pyrimidin-7(6H)-yl}[(3S)-3-methylmorpholin-4-yl]methanone]
22 | 7.68 | C[C@@H]1CN(C(=O)N2CCc3c(sc4ncnc(Nc5ccc6[nH]ncc6c5)c34)C2)C[C@H](C)O1 [Example 33, [(2R,6S)-2,6-Dimethylmorpholin-4-yl][4-(1H-indazol-5-ylamino)-5,8-dihydropyrido[4′,3′:4,5]thieno[2,3-d]pyrimidin-7(6H)-yl]methanone]
23 | 7.15 | CC(C)C(=O)N1CCc2c(sc3ncnc(Nc4cc5cn[nH]c5cc4Cl)c23)C1 [Example 56, 1-{4-[(6-Chloro-1H-indazol-5-yl)amino]-5,8-dihydropyrido[4′,3′:4,5]thieno[2,3-d]pyrimidin-7(6H)-yl}-2-methylpropan-1-one]
24 | 7.80 | CSc1cc2[nH]ncc2cc1Nc1ncnc2sc3c(c12)CCN(C(=O)OC(C)(C)C)C3 [Example 2, tert-Butyl 4-{[6-(methylsulfanyl)-1H-indazol-5-yl]amino}-5,8-dihydropyrido[4′,3′:4,5]thieno[2,3-d]pyrimidine-7(6H)-carboxylate]
25 | 8.40 | COc1cc2[nH]ncc2cc1Nc1ncnc2sc3c(c12)CCN(C(=O)N1[C@H](C)COC[C@H]1C)C3 [Example 93, [(3R,5R)-3,5-Dimethylmorpholin-4-yl]{4-[(6-methoxy-1H-indazol-5-yl)amino]-5,8-dihydropyrido[4′,3′:4,5]thieno[2,3-d]pyrimidin-7(6H)-yl}methanone]
